Results on 2 compounds are retold here after PMC10987639 (2024).

In experiment [1] the test system is yjdF riboswitch aptamer domain from R. gauvreauii, P2a loop modified for Fab BL3-6 binding (crystallization construct) (RNA, riboswitch) GGACAAAGAUAAAAACACAACGUAUGGCGAAACACGUCAUACAGAUCCGGUAGGUAGUCCGGACAUAAACAGCGGUAUAAAGCGCUGUUUAUAAGUAACCUUCCUCCUUAGGUCGUCCAUUCUUUGUC
The experiment is described as follows: X-ray crystallography (2.77 Å). The following applies: Mg2+, K+ (PDB ligands; concentrations not in material); co-crystal with Fab BL3-6, potassium osmate(VI) soak, pH 7.5; two ligand orientations.

Experiment [2] has the same test system. The experiment is described as follows: X-ray crystallography (3.05 Å). Conditions: Mg2+ (PDB ligand; concentration not in material); co-crystal with Fab BL3-6, pH 7.5; ligand orientation ambiguous.

On to `COc1ccc2c(c[n+](C)c3c4cc5c(cc4ccc23)OCO5)c1OC`, for which the binding result in experiment [1] is recorded as “yes”.
`Nc1ccc2cc3ccc(N)cc3nc2c1`: in experiment [2], the binding result is listed as “yes”.
